Measured values taken from BindingDB's records for doi:10.1016/j.ejmech.2018.01.053 (University of Southern California, 2018).

Legend:
[1] = Inhibition of BRAF V600E mutant in human A375 cells assessed as reduction in cell proliferation incubated for 96 hrs by MTT assay
[2] = Inhibition of BCR-ABL (unknown origin) expressed in mouse BA/F3 cells assessed as reduction in cell proliferation incubated for 48 hrs by MTT assay

## CC(C)n1nc(C#Cc2cccc3cc(-c4cccc(C(F)(F)F)c4)ncc23)c2c(N)ncnc21
[1]
  IC50: > 10000 nM
[2]
  IC50: 942 nM

## CC(C)n1nc(C#Cc2cccc(NC(=O)c3cccc(C(F)(F)F)c3)c2)c2c(N)ncnc21
[1]
  IC50: 97 nM

## CC(C)n1nc(C#Cc2cccc3cc(-c4ccc(CN5CCN(C)CC5)cc4)ncc23)c2c(N)ncnc21
[1]
  IC50: > 10000 nM
[2]
  IC50: 354 nM

## Cc1ccc2cc(-c3cccc(C(F)(F)F)c3)ncc2c1C#Cc1nn(C(C)C)c2ncnc(N)c12
[1]
  IC50: 2300 nM
[2]
  IC50: 435 nM

## CCn1nc(C#Cc2cccc3cc(-c4cccc(C(F)(F)F)c4)ncc23)c2c(N)ncnc21
[1]
  IC50: > 10000 nM
[2]
  IC50: 1110 nM
